According to ChEMBL document CHEMBL1201862, “PubChem BioAssay data set” (2004):
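Growth conditions: 96-well plates. Treatment: test compound, 48 hours, 5 concentrations. Analysis: linear interpolation between bracketing concentrations; unreached endpoints set to highest concentration. GI50: concentration for 50% inhibition of growth.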 The source made the active and inactive calls. Rule as the data show it: active = GI50 up to about 1.1 µM and inactive = higher.

Tests used:
Assay in all cases: growth of human tumour cells (NCI), 48 h
786-0 = system: 786-0
A498 = system: A498
A549 = system: A549
ACHN = system: ACHN
DU-145 = system: DU-145
HCC 2998 = system: HCC 2998
IGROV-1 = system: IGROV-1
K562 = system: K562
M14 = system: M14
MDA-MB-435 = system: MDA-MB-435
Malme-3M = system: Malme-3M
NCI-H226 = system: NCI-H226
NCI/ADR-RES = system: NCI/ADR-RES
OVCAR-3 = system: OVCAR-3
OVCAR-5 = system: OVCAR-5
SW-620 = system: SW-620
T47D = system: T47D
U-251 = system: U-251
UACC-257 = system: UACC-257
CCRF-CEM = system: CCRF-CEM

Measured: GI50

COc1cccc2[nH]c(-c3ccccn3)nc12
inactive: 786-0 > 100 µM | A498 > 100 µM | A549 > 100 µM | ACHN 56.2 µM | DU-145 > 100 µM | HCC 2998 > 100 µM | IGROV-1 > 100 µM | K562 > 100 µM | M14 > 100 µM | MDA-MB-435 > 100 µM | Malme-3M > 100 µM | NCI-H226 > 100 µM | NCI/ADR-RES 14.3 µM | OVCAR-3 55.7 µM | OVCAR-5 > 100 µM | SW-620 > 100 µM | T47D > 100 µM | U-251 > 100 µM | UACC-257 > 100 µM

CC(=O)n1c(COS(C)(=O)=O)nc2ccccc21
inactive: 786-0 > 100 µM | A498 > 100 µM | A549 > 100 µM | ACHN > 100 µM | DU-145 > 100 µM | HCC 2998 > 100 µM | IGROV-1 66.1 µM | M14 > 100 µM | MDA-MB-435 > 100 µM | Malme-3M > 100 µM | NCI-H226 > 100 µM | NCI/ADR-RES > 100 µM | OVCAR-3 58.6 µM | OVCAR-5 > 100 µM | SW-620 > 100 µM | T47D > 100 µM | U-251 > 100 µM | UACC-257 > 100 µM

c1ccc2c3c([nH]c2c1)C1CCCN1CC3 (centres undefined)
inactive: 786-0 > 10 µM | A498 > 10 µM | ACHN > 10 µM | CCRF-CEM > 10 µM | DU-145 > 10 µM | HCC 2998 > 10 µM | IGROV-1 > 10 µM | K562 > 10 µM | M14 > 10 µM | MDA-MB-435 > 10 µM | Malme-3M > 10 µM | NCI-H226 > 10 µM | NCI/ADR-RES > 10 µM | OVCAR-3 > 10 µM | OVCAR-5 > 10 µM | SW-620 > 10 µM | T47D > 10 µM | U-251 > 10 µM | UACC-257 > 10 µM

O=c1c2c3c(sc2nc2n1N=C(c1ccc(Cl)cc1)CS2)CCCC3
inactive: 786-0 > 100 µM | A498 > 100 µM | A549 > 100 µM | ACHN > 100 µM | CCRF-CEM > 100 µM | DU-145 > 100 µM | HCC 2998 > 100 µM | IGROV-1 > 100 µM | K562 > 100 µM | MDA-MB-435 > 100 µM | Malme-3M > 100 µM | NCI-H226 > 100 µM | NCI/ADR-RES > 100 µM | OVCAR-3 > 100 µM | OVCAR-5 > 100 µM | SW-620 > 100 µM | T47D > 100 µM | U-251 > 100 µM | UACC-257 > 100 µM

COc1ccccc1C1c2cc3c(cc2OC(N2CCCC2)C1C)OCO3 (centres undefined)
inactive: 786-0 16.8 µM | A498 15.2 µM | A549 18.4 µM | ACHN 14.5 µM | CCRF-CEM 19.5 µM | DU-145 15.2 µM | HCC 2998 15.8 µM | IGROV-1 19.3 µM | K562 15.1 µM | M14 13.7 µM | MDA-MB-435 12.4 µM | Malme-3M 18.4 µM | NCI/ADR-RES 18.5 µM | OVCAR-3 15.7 µM | OVCAR-5 19.2 µM | SW-620 18 µM | T47D 13.9 µM | U-251 18.8 µM | UACC-257 20.4 µM

CC(=O)O[C@@H]1CN(S(=O)(=O)c2ccc(C)cc2)C[C@@H]1C1CCCCC1
inactive: A498 20 µM | ACHN 37.5 µM | CCRF-CEM 37.8 µM | DU-145 30.8 µM | HCC 2998 42.5 µM | IGROV-1 17.3 µM | K562 45.7 µM | M14 15.8 µM | MDA-MB-435 18.7 µM | NCI-H226 16.5 µM | NCI/ADR-RES 20.6 µM | OVCAR-3 15 µM | OVCAR-5 26.7 µM | SW-620 20.4 µM | T47D 31.8 µM | U-251 17.7 µM | UACC-257 15.4 µM

CC1(C)CC[C@]2(C(=O)O)CC[C@]3(C)C(=CC[C@@H]4[C@@]5(C)CC[C@@H]6OC(C)(C)OC[C@@]6(C)[C@@H]5CC[C@]43C)[C@H]2C1
inactive: 786-0 10 µM | A498 15.4 µM | ACHN 3.24 µM | CCRF-CEM 15.4 µM | DU-145 9.86 µM | HCC 2998 13.2 µM | IGROV-1 11.4 µM | K562 14.9 µM | M14 15.5 µM | MDA-MB-435 8.55 µM | Malme-3M 12.6 µM | NCI/ADR-RES 16.9 µM | OVCAR-3 4.54 µM | OVCAR-5 16.8 µM | SW-620 14.5 µM | T47D 13.9 µM | U-251 5.89 µM | UACC-257 13.2 µM
